Source: ChEMBL document CHEMBL1135774 (J Med Chem, 2002)

Tests used:
Canis familiaris [1] = test: In vivo effect on erectile dysfunction in dogs after intravenous dose; format: functional; details: Canis lupus familiaris
[2] = target: cGMP-specific 3',5'-cyclic phosphodiesterase (Homo sapiens, UniProt O76074); test: Phosphodiesterase 5 activity of human corpus cavernosum
Homo sapiens = species on record: Homo sapiens; test: Selectivity for human retinal cone PDE-6 and human corpus cavernosum PDE-5
Canis familiaris [3] = test: In vivo efficacy in dogs; format: functional; details: Canis lupus familiaris
[4] = Oral bioavailability in rat; format: ADME, organism-based; details: in vivo
[5] = pKa value of the compound; format: physicochemical
[6] = pKa of the compound; format: physicochemical
Canis familiaris [7] = test: In vivo efficacy in dogs.; format: functional; details: Canis lupus familiaris

For `COc1ccc(-c2cnc(N3Cc4c(nc5ccccc5c4O)[C@H]3c3ccc4c(c3)CCO4)nc2)cc1`, the ED50 (Canis familiaris [1]) was 9.6 µg/kg, the Ki [2] was 230 pM and the Ratio (Homo sapiens) was 27.

With `COc1ccc(-c2cnc(N3Cc4c(nc5ccccc5c4O)C3c3ccc4c(c3)CCC4)nc2)cc1OC` (stereo not drawn) the Ki [2] was 1140 pM and the Ratio (Homo sapiens) was 2.14.

With `Oc1c2c(nc3ccccc13)C(c1ccc3c(c1)OCO3)N(c1ncccn1)C2` (stereo not drawn) the Ki [2] was 1200 pM and the Ratio (Homo sapiens) was 7.4.

`COc1ccc(-c2cnc(N3Cc4c(nc5ccccc5c4O)C3c3ccc4c(c3)OCCO4)nc2)cc1` (stereo not drawn) showed a Ki [2] of 520 pM and a Ratio (Homo sapiens) of 3.07.

In the case of `CCN(CC)CCOc1ccc(-c2cnc(N3Cc4c(nc5ccccc5c4O)C3c3ccc4c(c3)CCO4)nc2)cc1` (stereo not drawn), the Ki [2] is reported as 530 pM.

`COc1ccc(-c2cnc(N3Cc4c(nc5ccccc5c4O)C3c3ccc4c(c3)OCO4)nc2)cc1` (stereo not drawn) showed a Ki [2] of 310 pM and a Ratio (Homo sapiens) of 18.5.

`Oc1c2c(nc3ccccc13)C(c1ccc3c(c1)CCO3)N(c1ncccn1)C2` (stereo not drawn) gave a Ki [2] of 1080 pM and a Ratio (Homo sapiens) of 310.

With `CCCc1nn(C)c2c(=O)[nH]c(-c3cc(S(=O)(=O)N4CCN(C)CC4)ccc3OCC)nc12` the ED50 (Canis familiaris [3]) was 5.1 µg/kg and the bioavailability [4] was 11%.

`COc1ccc(-c2cnc(N3Cc4c(nc5ccccc5c4O)C3c3ccc(OC)c(OC)c3)nc2)cc1OC` (stereo not drawn) showed a Ki [2] of 24700 pM.

In the case of `COc1ccc(-c2cnc(N3CC(=O)c4c([nH]c5ccccc45)C3c3ccc4c(c3)OCO4)nc2)cc1OC` (stereo not drawn), the pKa [5] is reported as about 14 and the Ki [2] is reported as 8860 pM.

In the case of `COc1ccc(-c2cnc(N3Cc4c(nc5ccccc5c4O)[C@H]3c3ccc4c(c3)OCO4)nc2)cc1OC`, the pKa [6] is reported as 9, the ED50 (Canis familiaris [7]) is reported as 22.4 µg/kg and the Ki [2] is reported as 210 pM. The Ratio (Homo sapiens) was 0.59.

`COc1ccc(-c2cnc(N3Cc4c(nc5ccccc5c4O)C3c3ccc4c(c3)CCO4)nc2)cc1` (stereo not drawn) gave a Ki [2] of 400 pM, a Ratio (Homo sapiens) of 55.9 and a bioavailability [4] of 20%.

With `Oc1c2c(nc3ccccc13)C(c1ccc3c(c1)CCO3)N(c1ncc(-c3ccc(OCCN4CCOCC4)cc3)cn1)C2` (stereo not drawn) the Ki [2] was 290 pM.

In the case of `Oc1ccc(-c2cnc(N3Cc4c(nc5ccccc5c4O)C3c3ccc4c(c3)CCO4)nc2)cc1` (stereo not drawn), the Ki [2] is reported as 1750 pM.
